The subject of assay [1] is HT29 (human colon carcinoma, p53 mt). Nature of the assay: cells. The format is cell-based. From the text: (§1) The MTT assay can be used assess cytotoxicity.
Assay [2] relates to WiDr (human colon carcinoma, p53 mt). Nature of the assay: cells. The format is cell-based.
Source text: as §1

Assay [3] deals with HL60 (human leukaemia, p53 nul). As to the kind of experiment: cells. The format is cell-based.
Source text: as §1

For assay [4], the system named is 143B (143BTK-, human oesteosarcoma). Nature of the assay: cells. The note with it: 72 h, read-out: Cytotoxicity IC50, 143B Ostesarcoma. From the text: (§2) The cell lines chosen for study include both normal (non-cancer) and tumour-derived cell lines that represent both haematopoietic and solid tumor types with varying cell cycle control mechanisms (ie p53 status); CCD-18Co (normal human colon), L1210 (murine leukaemia, p53 mt), HL60 (human leukaemia, p53 nul), A2780 (human ovarian carcinoma, p53 wt), ADDP (cisplatin resistant A2780 cells, p53 mt), HCT116 (human colon carcinoma, p53 wt), SW480 (human colon carcinoma, p53 wt), WiDr (human colon carcinoma, p53 mt), HT29 (human colon carcinoma, p53 mt) and 143BTK-(human oesteosarcoma) cells.
(§3) The MTT assay can be used assess cytotoxicity. This assay determines cell viability by the ability of mitochondrial dehydrogenase to produce formazan crystals from 3-(4,5-dimethylthiazol-2-yl)2,5-diphenyltetrazolium bromide. The viable cell number/well is directly proportional to the production of formazan, which following solubilization, can be measured spectrophotometrically (540 nm). […] This technique is also used by the NCI(National Cancer Institute, USA) to screen for new anticancer agents. The MTT assay may be performed 72 h after exposure of the cells to varying doses of the phosphatase inhibitors. Since these agents are likely to interfere with the cell cycle it is important to test the cytotoxicity for at least two-three cell divisions.

The subject of assay [5] is A2780 (human ovarian carcinoma, p53 wt). As to the kind of experiment: cells. The note with it: A2780, 72 h, read-out: Cytotoxicity IC50, A2780 Ovarian.
Source text: as §2, §3

Assay [6] concerns the target T1, PP1 (Homo sapiens, UniProt P62136). As to the kind of experiment: Protein phosphatase assay with [32P]-glycogen phosphorylase a as substrate, PP1. Also on record: made in house. The format is biochemical. The procedure: (§4) Protein phosphatase assays were carried out essentially as described (Collins, E.; Sim, A. T. R.; Methods in Molecular Biology 1998, 93, 79-102) using [^32P]-glycogen phosphorylase a as substrate and recombinant PP1 (Bernt, N. Methods in Molecular Biology, 1998, 93, 67-78) or partially purified (chicken skeletal muscle) PP2A catalytic subunits (Mackintosh, C. In Protein Phosphorylation: A Practical Approach, Ed D G Hardie, IRL, 1993). Briefly, enzyme activity was measured at 30 ° C. in a buffer (final volume of […]) containing 50 mM Tris-HCl (pH 7.5), 1 mM EGTA, 0.1 mM EDTA, 5 mM Caffeine, 0.1% mercaptoethanol, 0.3 mg/mL BSA. The concentration of PP1 or PP2A used was such that the reaction was limited to 15% dephosphorylation to ensure linearity. The reaction was started with the addition of […] [^32P]-glycogen phosphorylase a and terminated after 20 minutes by the addition of […] ice-cold 70% TCA. After 10 minutes on ice the sample was centrifuged and a […] aliquot of the supematant was removed for scintillation counting of the [^32p] released during the reaction.

A further assay addresses PP2A (Homo sapiens, UniProt P67775). The following applies: read-out: PP2A protein phosphatase inhibition (IC50), cited from earlier work.
Assay [7] deals with T1, PP1. The following applies: read-out: PP1 protein phosphatase inhibition (IC50), cited from earlier work.
The next assay relates to HCT116 cells. Nature of the assay: Cell cycle analysis (propidium iodide, flow cytometry). The note with it: Cantharidin 25 μM, 6 h. The format is cell-based, human. The text has this:
The distribution of cells into the various phases of the cell cycle can be analysed by measuring the DNA content of the cells, via propidium iodide staining and subsequent flow cytometric analysis. Thus senescent cells (G0) and cells in the first gap (G1) of the cell cycle will have approximately half of the DNA content of cells about to under go mitosis (G2+M), while those cells synthesising DNA (S-phase) will have an intermediary DNA content. Using this technology, the effect of these new drugs on cells in the various phases of the cycle can be determined.

The test system of assay [8] is ten difference cancer cell lines of ovarian, bone, colon and baematopoietic origin. As to the kind of experiment: cells. The note with it: read-out: Cytotoxicity IC50 values, range over ten cancer cell lines.
Assay [9] addresses partially purified (chicken skeletal muscle) PP2A catalytic subunits (Gallus gallus, UniProt P48463). The format is biochemical. The procedure: as §4
The subject of assay [10] is SW480 (human colon carcinoma, p53 wt). Nature of the assay: cells. The format is cell-based. The following applies: Table 3, read-out: Cytotoxicity IC50, SW480.
Source text: as §1

The subject of assay [11] is L1210 (murine leukaemia, p53 mt). As to the kind of experiment: cells. The note with it: Mus musculus, Table 3, read-out: Cytotoxicity IC50, L1210. The format is cell-based.
Source text: as §1

Setting [12] is: HT-29, 72 h exposure, background Table 2, read-out: Cytotoxicity IC50, HT29 Colon.
Where [13] appears, read: 72 h exposure, background Table 2, read-out: Cytotoxicity IC50, WiDr Colon.
Setting [14] is: HL-60, 72 h exposure, background Table 2, read-out: Cytotoxicity IC50, HL60 Leukaemia.
[15] abbreviates: Table 2 cantharimides, average of three experiments in triplicate, read-out: PP1 Inhibition IC50.
[16] abbreviates: naturally occurring toxins, background Table 1.
The mark [17] stands for this setting: HT-29, Table 3, read-out: Cytotoxicity IC50, HT29.
[18] abbreviates: HL-60, Table 3, read-out: Cytotoxicity IC50, HL60.
The mark [19] stands for this setting: Table 3 summary, read-out: PP1 Inhibition.

Like-named read-outs stand apart in the source and are kept apart here. *1 amine or outer side, *2 acyl side, *3 side chain or, on linkers, in order; H or OH if unused. Where a SMILES comes first, the peptide text is derived from it. Bridges are numbered along the chain shown (N, C = ends). [ ]: non-standard residue; d: D form. Adda = CO[C@@H](Cc1ccccc1)[C@@H](C)/C=C(C)/C=C/[C@H](N[*:1])[C@H](C)C(=O)[*:2]; dAsp(3S-Me) = C[C@H](C(=O)[*:3])[C@@H](N[*:1])C(=O)[*:2]; d(γGlu) = O=C(O)[C@@H](CCC(=O)[*:2])N[*:1]; NMeDha = C=C(NC)C(=O)O

T1 sequence (P62136 whole entry): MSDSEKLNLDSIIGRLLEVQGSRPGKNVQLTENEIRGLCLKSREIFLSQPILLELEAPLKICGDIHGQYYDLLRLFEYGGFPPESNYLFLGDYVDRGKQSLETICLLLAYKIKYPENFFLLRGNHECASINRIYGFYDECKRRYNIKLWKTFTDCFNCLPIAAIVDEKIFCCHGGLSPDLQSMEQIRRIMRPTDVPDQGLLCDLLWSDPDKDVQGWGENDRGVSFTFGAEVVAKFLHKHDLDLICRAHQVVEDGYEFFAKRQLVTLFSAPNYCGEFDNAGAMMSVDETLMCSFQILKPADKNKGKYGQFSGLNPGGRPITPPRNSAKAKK
PP2A, sequence (P67775 whole entry): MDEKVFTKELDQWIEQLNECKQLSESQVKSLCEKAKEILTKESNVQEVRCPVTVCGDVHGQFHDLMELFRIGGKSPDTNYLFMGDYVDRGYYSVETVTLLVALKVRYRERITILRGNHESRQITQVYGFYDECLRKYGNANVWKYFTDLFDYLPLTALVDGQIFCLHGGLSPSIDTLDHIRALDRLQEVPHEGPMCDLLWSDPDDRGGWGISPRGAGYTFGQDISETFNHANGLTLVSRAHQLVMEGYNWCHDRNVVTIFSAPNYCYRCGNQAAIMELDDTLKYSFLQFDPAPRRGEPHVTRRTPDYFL
partially purified (chicken skeletal muscle) PP2A catalytic subunits, sequence (P48463 whole entry): as the sequence (P67775 whole entry) above, with D2E, V5S, T7A, K21R, K29R, R108P counted along it

For the compound `CCCOC(=O)C1C(C(=O)O)[C@@H]2CC[C@H]1O2` (stereo partly shown), the IC50 worked out at 15 ± 5 µM in [1] (HT-29, 72 h, read-out: Cytotoxicity IC50, HT29 Colon); 33 ± 6 µM in assay [2] (72 h, read-out: Cytotoxicity IC50, WiDr Colon); 270 ± 15 µM in assay [3] (HL-60, 72 h, read-out: Cytotoxicity IC50, HL60 Leukaemia); 450 ± 50 µM in assay [4]; 110 ± 10 µM in [5].
Regarding `O=C1OC(O)[C@@H]2[C@H]1[C@H]1CC[C@@H]2O1` (stereo partly shown), the IC50 is 14 ± 0.3 µM in assay [1] (setting [12]); 15 ± 3 µM in assay [2] (setting [13]); 393 ± 103 µM in [3] (setting [14]); 454 ± 50 µM in [4]; 333 ± 55 µM in assay [5].
On to `O=C(O)C(Cc1ccc(O)cc1)N1C(=O)C2C3CCC(O3)C2C1=O` (single isomer, unassigned) [Compound 16], for which the IC50 on PP1 [6] (setting [15]) was determined as 101 ± 34 µM.
Same read-out and setting: next, `O=C(O)C(Cc1ccc(O)cc1)N1C(=O)C2C3CCC(O3)C2C1=O` (single isomer, unassigned) [Compound 17]: 570 ± 330 µM.
Consider `COC[C@@H]([C@H](O)[C@H](O)C(=O)NCC[C@H](C)c1nc(/C=C/C[C@@H]2O[C@]3(C[C@@H](O)[C@@H]2C)O[C@H]([C@H](C[C@H](O)[C@H](C)[C@H](O)[C@H](C)/C=C(C)/C(C)=C/C=C/C(C)=C\C#N)OC)[C@H](OP(=O)(O)O)C3(C)C)co1)N(C)C` [Calyculin A], for which the results for the IC50 at PP2A (setting [16]) and at PP1 [7] were 0.5 nM and 0.002 µM, respectively.
For `C[C@@]12C(=O)OC(=O)[C@]1(C)[C@H]1CC[C@@H]2O1` [Compound 1, cantharidin], the “Cell cycle distribution, S-phase” value in the assay with HCT116 cells is given as “significant increased S-phase population”. Besides, the IC50 in assay [8] is 6 to 18 µM.
Take `O=C1OC(=O)[C@H]2[C@@H]1[C@@H]1CC[C@H]2O1` [Compound 3, norcantharidin, reference compound]: the IC50 on PP1 [6] (setting [15]) came out at 5.31 ± 0.36 µM.
For the compound `C[C@H](C(=O)O)N1C(=O)C2C3CCC(O3)C2C1=O` (stereo partly shown) [Compound 4], the IC50 on PP1 [6] (setting [15]) is above 1000 µM. Further, in assay [9], the “PP2A inhibition, in words” value was “marginal activity”.
For `C[C@@H](C(=O)O)N1C(=O)C2C3CCC(O3)C2C1=O` (stereo partly shown) [Compound 5], at PP1 [6] (setting [15]), the IC50 was above 1000 µM.
The same measure, in the same setting: the result for `O=C(O)[C@@H](Cc1ccccc1)N1C(=O)C2C3CCC(O3)C2C1=O` (stereo partly shown) [Compound 6] reads above 1000 µM; that for `O=C(O)[C@H](Cc1ccccc1)N1C(=O)C2C3CCC(O3)C2C1=O` (stereo partly shown) [Compound 7], above 1000 µM; that for `CC(C)C[C@H](C(=O)O)N1C(=O)C2C3CCC(O3)C2C1=O` (stereo partly shown) [Compound 8], above 1000 µM.
The same measure, in the same setting: the result for `CC(C)C[C@@H](C(=O)O)N1C(=O)C2C3CCC(O3)C2C1=O` (stereo partly shown) [Compound 9] reads above 1000 µM; that for `CC[C@@H](C)[C@H](C(=O)O)N1C(=O)C2C3CCC(O3)C2C1=O` (stereo partly shown) [Compound 10], above 1000 µM.
Turning to `CC[C@H](C)[C@@H](C(=O)O)N1C(=O)C2C3CCC(O3)C2C1=O` (stereo partly shown) [Compound 11], the IC50 at PP1 [6] (setting [15]) is above 1000 µM.
`O=C(O)[C@@H](Cc1c[nH]c2ccccc12)N1C(=O)C2C3CCC(O3)C2C1=O` (stereo partly shown) [Compound 12]: the IC50 at PP1 [6] (read-out: PP1 IC50) was 770 ± 146 µM.
The same measure, in the same setting: next, `O=C(O)[C@H](Cc1c[nH]c2ccccc12)N1C(=O)C2C3CCC(O3)C2C1=O` (stereo partly shown) [Compound 13]: 312 ± 153 µM.
For `O=C(O)[C@@H](Cc1cnc[nH]1)N1C(=O)C2C3CCC(O3)C2C1=O` (stereo partly shown) [Compound 14], the IC50 in [1] (setting [17]) was 28 ± 9 µM; in assay [10], 32 ± 12 µM; in [11], 6 ± 1 µM; in assay [3] (setting [18]), 21 ± 13 µM; at PP1 [6] (setting [15]) it was 3.22 ± 0.7 µM; at PP1 [6] (setting [19]) it was 3.22 ± 0.7 µM.
For the compound `O=C(O)[C@H](Cc1cnc[nH]1)N1C(=O)C2C3CCC(O3)C2C1=O` (stereo partly shown) [Compound 15], the IC50 in [1] (setting [17]) stood at 28 ± 10 µM; in [10], 61 ± 30 µM; in assay [11], 30 ± 14 µM; in [3] (setting [18]) it was 55 ± 24 µM; at PP1 [6] (setting [15]) it was 2.82 ± 0.6 µM; at PP1 [6] (setting [19]) it was 2.82 ± 0.6 µM.
On to `NC(=O)CC[C@H](C(=O)O)N1C(=O)C2C3CCC(O3)C2C1=O` (stereo partly shown) [Compound 18], for which the IC50 on PP1 [6] (setting [15]) was 95 ± 5 µM.
Same read-out and setting: the result for `CSCC[C@@H](C(=O)O)N1C(=O)C2C3CCC(O3)C2C1=O` (stereo partly shown) [Compound 19] reads above 1000 µM.
In the case of `C[C@@](O)(/C=C/[C@H]1CC=CC(=O)O1)[C@@H](C[C@@H](O)\C=C/C=C\C=C\CO)OP(=O)(O)O` [Fostriecin], the IC50 at PP2A (setting [16]) is 3.4 nM; on PP1 [7] (setting [16]), 131 µM.
Turning to `C=C1C(=O)N[C@H](C)C(=O)N[C@@H](CC(C)C)C(=O)N[C@@H](C(=O)O)[C@H](C)C(=O)N[C@@H](CCCNC(=N)N)C(=O)N[C@@H](/C=C/C(C)=C/[C@H](C)[C@H](Cc2ccccc2)OC)[C@H](C)C(=O)N[C@@H](C(=O)O)CCC(=O)N1C` [Microcystin LR] (R[Adda][d(γGlu)][NMeDha][dA]L[dAsp(3S-Me)]-OH; lactam N-7), the IC50 at PP2A was 0.04 nM; on PP1 [7], 0.0017 µM.
As for `C=C1[C@@H](O)[C@@H]2O[C@]3(CC[C@H](/C=C/[C@@H](C)[C@@H]4CC(C)=C[C@@]5(O[C@H](C[C@@](C)(O)C(=O)O)CC[C@H]5O)O4)O3)CC[C@H]2O[C@@H]1[C@@H](O)C[C@H](C)[C@H]1O[C@@]2(CCCCO2)CC[C@H]1C` [Okadaic acid], at PP2A (setting [16]), the IC50 was 0.51 nM.
With `CCOC(=O)C1C(C(=O)O)[C@@H]2CC[C@H]1O2` (stereo partly shown) [R = CH3CH2], the IC50 at PP1 [6] (read-out: PP1 IC50) came to 2.96 µM.
Consider `CO[C@H]([C@H](O)CC(=O)[C@@H](C)[C@@H](O)CC[C@@H](C)[C@@H]1O[C@]2(CC[C@@H](C)[C@H](CC[C@H](C)C(C)=O)O2)CC[C@@H]1C)[C@H](OC(=O)C[C@@H](O)C1=C(C)C(=O)OC1=O)C(C)C` [Tautomycin], for which the IC50 at PP2A (setting [16]) is 1 nM; at PP1 [7] (setting [16]) it was 0.0003 µM.
For `C[C@@]12C(=O)OC(=O)[C@]1(C)[C@H]1CC[C@@H]2O1` [drawing 2], the IC50 worked out at 6.5 ± 0.5 µM in assay [1] (setting [12]); 6.1 ± 0.5 µM in [2] (setting [13]); 10 ± 2 µM in [3] (setting [14]); 10 ± 1 µM in [4]; 10 ± 2 µM in [5].

The values above are taken from patent US20040209934A1, “Protein phosphate inhibitors” (priority 2001, published 2004).
